Where two headings read alike, the source gives them in different places.
Experiments:
[1] = On-resin ring-closing olefin metathesis (all-hydrocarbon stapling, S5/S5 i,i+4 or R8/S5 i,i+7), first-generation Grubbs catalyst (3 equiv); then Fmoc removal, TFA cleavage, RP-HPLC; conditions: the molecule shown is the open-chain precursor, 33-membered ring, 1,2-dichloroethane (dry), 25.0 °C, 4.0 h
[2] = the molecule shown is the open-chain precursor, resin

Row | SMILES | ring closure, overall yield [1] | other results
1 | C=CCCCCCC[C@@](C)(NC(=O)[C@@H](NC(=O)OCC1c2ccccc2-c2ccccc21)C(C)C)C(=O)N[C@@H](CCCNC(=N)NS(=O)(=O)c1c(C)c(C)c2c(c1C)CC(C)(C)O2)C(=O)N[C@@H](Cc1ccccc1)C(=O)N[C@@H](CCCCNC(=O)OC(C)(C)C)C(=O)N[C@@H](CCCCNC(=O)OC(C)(C)C)C(=O)N[C@@H](Cc1ccccc1)C(=O)N[C@@H](Cc1ccccc1)C(=O)N[C@@](C)(CCCC=C)C(=O)N[C@@H](CCCCNC(=O)OC(C)(C)C)C(=O)N[C@@H](CC(C)C)C(=O)N[C@@H](CCCCNC(=O)OC(C)(C)C)C(=O)N[C@@H](CCCCNC(=O)OC(C)(C)C)C(=O)N[C@@H](CC(C)C)C(=O)N[C@H](C(N)=O)C(C)C | 62% | –
2 | C=CCCCCCC[C@@](C)(NC(=O)[C@H](CCCCNC(=O)OC(C)(C)C)NC(=O)[C@H](Cc1ccccc1)NC(=O)[C@H](CCCNC(=N)NS(=O)(=O)c1c(C)c(C)c2c(c1C)CC(C)(C)O2)NC(=O)[C@H](CCCCNC(=O)OC(C)(C)C)NC(=O)[C@@H](NC(=O)OCC1c2ccccc2-c2ccccc21)C(C)C)C(=O)N[C@@H](Cc1ccccc1)C(=O)N[C@@H](Cc1ccccc1)C(=O)N[C@@H](CCCNC(=N)NS(=O)(=O)c1c(C)c(C)c2c(c1C)CC(C)(C)O2)C(=O)N[C@@H](CCCCNC(=O)OC(C)(C)C)C(=O)N[C@@H](CC(C)C)C(=O)N[C@@H](CCCCNC(=O)OC(C)(C)C)C(=O)N[C@@](C)(CCCC=C)C(=O)N[C@@H](CC(C)C)C(=O)N[C@H](C(N)=O)C(C)C | 62% | –
3 | C=CCCCCCC[C@@](C)(NC(=O)[C@H](Cc1ccccc1)NC(=O)[C@H](CCCNC(=N)NS(=O)(=O)c1c(C)c(C)c2c(c1C)CC(C)(C)O2)NC(=O)[C@H](CCCCNC(=O)OC(C)(C)C)NC(=O)[C@@H](NC(=O)OCC1c2ccccc2-c2ccccc21)C(C)C)C(=O)N[C@@H](CCCCNC(=O)OC(C)(C)C)C(=O)N[C@@H](Cc1ccccc1)C(=O)N[C@@H](Cc1ccccc1)C(=O)N[C@@H](CCCNC(=N)NS(=O)(=O)c1c(C)c(C)c2c(c1C)CC(C)(C)O2)C(=O)N[C@@H](CCCCNC(=O)OC(C)(C)C)C(=O)N[C@@H](CC(C)C)C(=O)N[C@@](C)(CCCC=C)C(=O)N[C@@H](CCCCNC(=O)OC(C)(C)C)C(=O)N[C@@H](CC(C)C)C(=O)N[C@H](C(N)=O)C(C)C | – | ring closure, overall yield ([2]; 33-membered ring): 65%
4 | C=CCCC[C@](C)(NC(=O)[C@H](CCCCNC(=O)OC(C)(C)C)NC(=O)[C@H](Cc1ccccc1)NC(=O)[C@H](CCCNC(=N)NS(=O)(=O)c1c(C)c(C)c2c(c1C)CC(C)(C)O2)NC(=O)[C@](C)(CCCC=C)NC(=O)[C@@H](NC(=O)OCC1c2ccccc2-c2ccccc21)C(C)C)C(=O)N[C@@H](Cc1ccccc1)C(=O)N[C@@H](Cc1ccccc1)C(=O)N[C@@H](CCCNC(=N)NS(=O)(=O)c1c(C)c(C)c2c(c1C)CC(C)(C)O2)C(=O)N[C@@H](CCCCNC(=O)OC(C)(C)C)C(=O)N[C@@H](CC(C)C)C(=O)N[C@@H](CCCCNC(=O)OC(C)(C)C)C(=O)N[C@@H](CCCCNC(=O)OC(C)(C)C)C(=O)N[C@@H](CC(C)C)C(=O)N[C@H](C(N)=O)C(C)C | – | ring closure, overall yield ([2]; 21-membered ring): 65%
